Common to all, as to type: cell-based
In assay [1] the test system is Staphylococcus aureus NRS384 (MRSA). Kind of assay: Broth microdilution MIC, S. aureus NRS384 (MRSA). The arrangement: MIC NRS 384 (MRSA): unit not given here. As to conditions: broth microdilution, 37° C., 20 hours; for MIC: Staphylococcus aureus, read-out: MIC NRS 384 (MRSA). An outline of the steps:
(§1)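 Broth microdilution in strain-specific test medium with ~5.0×10^5 cfu/ml inoculum, 1% DMSO and two-fold compound dilutions from 64 to 0.0625 μg/ml. Plates were held 20 hours at 37° C in ambient air. S. pneumoniae colonies were grown beforehand on blood agar in 5% CO2.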
In general terms: Dilution methods test growth across graded concentrations, often in twofold steps.

For assay [2], the system named is Staphylococcus aureus ATCC 29213 (MSSA). Kind of assay: Broth microdilution MIC, S. aureus ATCC 29213 (MSSA). As to conditions: broth microdilution, 37° C., 20 hours, read-out: MIC S. aureus ATCC 29213 (MSSA). In short, it runs like this: as §1
Assay [3] relates to Enterococcus faecalis ATCC 29212. Kind of assay: Broth microdilution MIC, E. faecalis ATCC 29212. Particulars: ATCC29212, broth microdilution, 37° C., 20 hours, read-out: MIC E. faecalis ATCC 29212. In short, it runs like this: as §1
Assay [4] has as its system Enterococcus faecium ATCC 700221 (VRE). Kind of assay: Broth microdilution MIC, E. faecium ATCC 700221 (VRE). The arrangement: MIC E. faecium ATCC 700221 (VRE): unit: ug/mL. Particulars: broth microdilution, 37° C., 20 hours; for MIC: Enterococcus faecium, read-out: MIC E. faecium ATCC 700221 (VRE). An outline of the steps: as §1
Assay [5] has as its system Streptococcus pneumoniae ATCC 49619. Kind of assay: Broth microdilution MIC, S. pneumoniae ATCC 49619. As to conditions: ATCC49619, broth microdilution, 37° C., 20 hours, read-out: MIC S. pneumoniae ATCC 49619. An outline of the steps: as §1
In assay [6] the test system is Bacillus subtilis ATCC 6633. Kind of assay: Broth microdilution MIC, B. subtilis ATCC 6633. Particulars: ATCC6633, broth microdilution, 37° C., 20 hours, read-out: MIC B. subtilis ATCC 6633. In short, it runs like this:
as §1

Assay [7] relates to Escherichia coli ATCC 25922. Kind of assay: Broth microdilution MIC, E. coli ATCC 25922 (MHIIB w & w/o 4 mM EDTA). Particulars: broth microdilution, 37° C., 20 hours; for MIC: Escherichia coli, ATCC25922, without EDTA, read-out: MIC E. coli ATCC 25922; for MIC E. coli ATCC 25922 + 4 mM EDTA: with 4 mM EDTA. In short, it runs like this: as §1

Values after ≈ are worked out from the molar mass of the structure shown. Read-outs that look alike come from different tables or passages of the source. Some results are limits rather than exact numbers.

What is called MIC is the smallest concentration in the dilution series that meets the test's criterion for growth inhibition. As to `COCC(OCCn1ncc2nc(NCc3ccc(Cl)c(Cl)c3)[nH]c(=O)c21)c1cccnc1.Cl` (stereo not shown) [Compound 185, 5-((3,4-Dichlorobenzyl)amino)-1-(2-(2-methoxy-1-(pyridin-3-yl)ethoxy)ethyl)-1H-pyrazolo[4,3-d]pyrimidin-7(6H)-one hydrochloride], the MIC in assay [1] is 16 µg/mL; in assay [2], 16 µg/mL; in assay [3], 16 µg/mL; in assay [4] it was 16 µg/mL; in assay [5], 8 µg/mL; in assay [6], 4 µg/mL. Moreover, in assay [7], the MIC was more than 64 µg/mL. Besides, the “MIC E. coli ATCC 25922 + 4 mM EDTA” value in assay [7] is more than 64. ug/ml.

As for `Cl.O=c1[nH]c(NCc2ccc(Cl)c(Cl)c2)nc2cnn(CCc3nnc(CO)o3)c12` [Compound 234, 5-((3,4-dichlorobenzyl)amino)-1-(2-(5-(hydroxymethyl)-1,3,4-oxadiazol-2-yl)ethyl)-1H-pyrazolo[4,3-d]pyrimidin-7(6H)-one hydrochloride], the MIC came to 64 µg/mL in assay [1]; 64 µg/mL in assay [2]; 32 µg/mL in assay [3]; 8 µg/mL in assay [4]; 16 µg/mL in assay [5]; 16 µg/mL in assay [6]. The MIC in assay [7] was more than 64 µg/mL. In assay [7], the “MIC E. coli ATCC 25922 + 4 mM EDTA” value was more than 64 µg/mL.

In the case of `O=c1c2c(cnn2CCOCCO)nc(NCc2ccc(Cl)c(Cl)c2)n1COP(=O)(O)O` [Compound 320, (5-((3,4-dichlorobenzyl)amino)-1-(2-(2-hydroxyethoxy)ethyl)-7-oxo-1H-pyrazolo[4,3-d]pyrimidin-6(7H)-yl)methyl dihydrogen phosphate], the MIC in assay [1] (S. aureus NRS 384), in assay [2], in assay [3], in assay [4], in assay [5] and in assay [6] was more than 64 µg/mL each time. For the same compound, the minimum inhibitory concentration (MIC) in assay [7] was more than 64 µg/mL. Moreover, the “MIC E. coli ATCC 25922 + 4 mM EDTA” value in assay [7] is more than 64 µg/mL.

Regarding `O=C(O)COCCn1cc2nc(NCc3ccc(Cl)c(Cl)c3)[nH]c(=O)c2n1` [Compound 141, 2-(2-(5-((3,4-Dichlorobenzyl)amino)-7-oxo-6,7-dihydro-2H-pyrazolo[4,3-d]pyrimidin-2-yl)ethoxy)acetic acid], the minimal inhibitory concentration (MIC) in assay [1], in assay [2], in assay [3], in assay [4], in assay [5] and in assay [6] was more than 64 µg/mL throughout. The MIC in assay [7] is more than 64 µg/mL. For the same compound, the “MIC E. coli ATCC 25922 + 4 mM EDTA” value in assay [7] is more than 64 µg/mL.

As to `Cl.O=C(c1cc[nH]n1)N1CCC(n2ncc3nc(NCc4ccc(Cl)c(Cl)c4)[nH]c(=O)c32)CC1` [Compound 271, 1-(1-(1H-pyrazole-3-carbonyl)piperidin-4-yl)-5-((3,4-dichlorobenzyl)amino)-1H-pyrazolo[4,3-d]pyrimidin-7(6H)-one hydrochloride], the minimal inhibitory concentration (MIC) is 8 µg/mL in assay [1]; 8 µg/mL in assay [2]; 4 µg/mL in assay [3]; 4 µg/mL in assay [4]; 4 µg/mL in assay [5]; 2 µg/mL in assay [6]. Moreover, in assay [7], the minimal inhibitory concentration (MIC) is more than 64 µg/mL. The “MIC E. coli ATCC 25922 + 4 mM EDTA” value in assay [7] was more than 64 µg/mL.

Turning to `O=c1[nH]c(NCc2ccc(Cl)c(Cl)c2)nc2cnn(C[C@@H]3CO[C@H](CO)CO3)c12` [Compound 208, 5-((3,4-dichlorobenzyl)amino)-1-(((2R,5R)-5-(hydroxymethyl)-1,4-dioxan-2-yl)methyl)-1H-pyrazolo[4,3-d]pyrimidin-7(6H)-one], the MIC in assay [1] was found to be 16 µg/mL (≈ 36.3 µM); in assay [2] it was 16 µg/mL (≈ 36.3 µM); in assay [3], 8 µg/mL (≈ 18.2 µM); in assay [4] it was 4 µg/mL (≈ 9.08 µM); in assay [5], 8 µg/mL (≈ 18.2 µM); in assay [6] it was 2 µg/mL (≈ 4.54 µM). In addition, the minimal inhibitory concentration (MIC) in assay [7] was more than 64 µg/mL. Also, the “MIC E. coli ATCC 25922 + 4 mM EDTA” value in assay [7] was more than 64 µg/mL.

In the case of `Cl.Cl.O=c1[nH]c(NCc2ccc(Cl)c(Cl)c2)nc2cnn(C3CCN(c4ccccn4)CC3)c12` [Compound 161, 5-((3,4-dichlorobenzyl)amino)-1-(1-(pyridin-2-yl)piperidin-4-yl)-1H-pyrazolo[4,3-d]pyrimidin-7(6H)-one dihydrochloride], the MIC is 4 µg/mL in assay [1]; 8 µg/mL in assay [2]; more than 64 µg/mL in assay [3]; 2 µg/mL in assay [4]; 16 µg/mL in assay [5]; 2 µg/mL in assay [6]. In addition, the MIC in assay [7] is more than 64 µg/mL. In addition, the “MIC E. coli ATCC 25922 + 4 mM EDTA” value in assay [7] is more than 64 µg/mL.

Turning to `CNC(=O)C(CCCn1ncc2nc(NCc3ccc(Cl)c(Cl)c3)[nH]c(=O)c21)c1ccccc1` (stereo not shown) [Compound 200, 5-(5-((3,4-dichlorobenzyl)amino)-7-oxo-6,7-dihydro-1H-pyrazolo[4,3-d]pyrimidin-1-yl)-N-methyl-2-phenylpentanamide], the MIC is 8 µg/mL (≈ 16 µM) in assay [1]; 8 µg/mL (≈ 16 µM) in assay [2]; 16 µg/mL (≈ 32 µM) in assay [3]; 8 µg/mL (≈ 16 µM) in assay [4]; 16 µg/mL (≈ 32 µM) in assay [5]; 2 µg/mL (≈ 4 µM) in assay [6]. Also, in assay [7], the MIC is more than 64 µg/mL. Moreover, the “MIC E. coli ATCC 25922 + 4 mM EDTA” value in assay [7] is more than 64 µg/mL.

In the case of `Cl.O=c1[nH]c(NCc2ccc(Cl)c(Cl)c2)nc2cnn(Cn3cncn3)c12` [Compound 101, 1-((1H-1,2,4-triazol-1-yl)methyl)-5-((3,4-dichlorobenzyl)amino)-1H-pyrazolo[4,3-d]pyrimidin-7(6H)-one hydrochloride], the “MIC NRS 384 (MRSA)” value in assay [1] is 8/8. In addition, the minimal inhibitory concentration (MIC) was 4 µg/mL in assay [2]; 4 µg/mL in assay [3]; 4 µg/mL in assay [5]; 2 µg/mL in assay [6]; more than 64 µg/mL in assay [7]. Besides, in assay [4], the “MIC E. faecium ATCC 700221 (VRE)” value was 2/4. The “MIC E. coli ATCC 25922 + 4 mM EDTA” value in assay [7] came out at 64 µg/mL.

Take `Cc1ccnc(C(=O)N2CCC(n3ncc4nc(NCc5ccc(Cl)c(Cl)c5)[nH]c(=O)c43)CC2)c1.Cl` [Compound 264, 5-((3,4-Dichlorobenzyl)amino)-1-(1-(4-methylpicolinoyl)piperidin-4-yl)-1H-pyrazolo[4,3-d]pyrimidin-7(6H)-one hydrochloride]: the MIC in assay [1] stood at 2 µg/mL; in assay [2] it was 4 µg/mL; in assay [3], 4 µg/mL; in assay [4], 1 µg/mL; in assay [5], 4 µg/mL; in assay [6], 1 µg/mL. The minimum inhibitory concentration (MIC) in assay [7] is more than 64 µg/mL. In addition, the “MIC E. coli ATCC 25922 + 4 mM EDTA” value in assay [7] is more than 64 µg/mL.

As for `Cn1ncc2nc(NCc3cccnn3)[nH]c(=O)c21` [Compound 23, 1-Methyl-5-((pyridazin-3-ylmethyl)amino)-1H-pyrazolo[4,3-d]pyrimidin-7(6H)-one], the MIC in assay [1], in assay [2], in assay [3], in assay [4], in assay [5] and in assay [6] was more than 64 µg/mL in each case. Besides, the MIC in assay [7] was more than 64 µg/mL. Further, the “MIC E. coli ATCC 25922 + 4 mM EDTA” value in assay [7] was more than 64 µg/mL.

For the compound `Cn1ncc2nc(NCc3ccccc3)[nH]c(=O)c21` [Compound 3, 5-(Benzylamino)-1-methyl-1H-pyrazolo[4,3-d]pyrimidin-7(6H)-one], the minimal inhibitory concentration (MIC) in assay [1] is 64 µg/mL (≈ 251 µM); in assay [2], 32 µg/mL (≈ 125 µM); in assay [3] it was 64 µg/mL (≈ 251 µM); in assay [4] it was 32 µg/mL (≈ 125 µM); in assay [5], 32 µg/mL (≈ 125 µM); in assay [6], 32 µg/mL (≈ 125 µM). In addition, the MIC in assay [7] was more than 64 µg/mL. In addition, in assay [7], the “MIC E. coli ATCC 25922 + 4 mM EDTA” value was more than 64 µg/mL.

In the case of `Cn1ncc2nc(NCc3ccc(F)c(Cl)c3)[nH]c(=O)c21` [Compound 24, 5-((3-Chloro-4-fluorobenzyl)amino)-1-methyl-1H-pyrazolo[4,3-d]pyrimidin-7(6H)-one], the minimum inhibitory concentration (MIC) is 8 µg/mL (≈ 26 µM) in assay [1]; 8 µg/mL (≈ 26 µM) in assay [2]; more than 64 µg/mL in assay [3]; 8 µg/mL (≈ 26 µM) in assay [4]; 4 µg/mL (≈ 13 µM) in assay [5]; 8 µg/mL (≈ 26 µM) in assay [6]. The minimal inhibitory concentration (MIC) in assay [7] was more than 64 µg/mL. For the same compound, the “MIC E. coli ATCC 25922 + 4 mM EDTA” value in assay [7] was more than 64 µg/mL.

As to `O=C(c1nccs1)N1CCC(n2ncc3nc(NCc4ccc(Cl)c(Cl)c4)[nH]c(=O)c32)CC1` [Compound 254, 5-[(3,4-Dichlorophenyl)methylamino]-1-[1-(thiazole-2-carbonyl)-4-piperidyl]-6H-pyrazolo[4,3-d]pyrimidin-7-one], the MIC in assay [1] was determined as 2 µg/mL (≈ 3.97 µM); in assay [2], 2 µg/mL (≈ 3.97 µM); in assay [3], 4 µg/mL (≈ 7.93 µM); in assay [4], 2 µg/mL (≈ 3.97 µM); in assay [5] it was 4 µg/mL (≈ 7.93 µM); in assay [6], 1 µg/mL (≈ 1.98 µM). Besides, the MIC in assay [7] is more than 64 µg/mL. Further, the “MIC E. coli ATCC 25922 + 4 mM EDTA” value in assay [7] was more than 64 µg/mL.

For the origin of these results see patent publication US10723741B1, “DNA polymerase IIIC inhibitors and use thereof” (Acurx Pharmaceuticals, LLC, priority 2018, dated 2020).
